Test results taken from patent US20180015100A1, “COMBINATION PRODUCTS FOR THE TREATMENT OF BACTERIAL INFECTIONS AND METHODS OF PRODUCING OR DOSING OF SAME” (priority 2016, published 2018).
≈ marks a conversion by molar mass, not a printed value. Like-named read-outs stand apart in the source and are kept apart here.

Assays:
Format in all cases: cell-based
[1] = tested on: Burkholderia pseudomallei 1026b; assay: microbe, parasite or virus in culture
[2] = tested on: beta-lactamase producing K. pneumoniae; assay: In vitro chemostat model, clavulanate exposures with fixed ceftibuten exposure
[3] = tested on: 385 Escherichia coli and 126 Klebsiella pneumoniae isolates; assay: MIC, MIC50 and MIC90 by reference broth microdilution against 511 UTI/bloodstream isolates (USA and Europe 2014-2015)
[4] = 365 isolates producing CTX-M enzymes

Nc1nc(/C(=C/CC(=O)O)C(=O)N[C@@H]2C(=O)N3C(C(=O)O)=CCS[C@H]23)cs1 [Ceftibuten, ceftibuten]
MIC [1]: 8 µg/mL (≈ 19.5 µM)
MIC ([2]; K. pneumoniae CTX-M-14, SHV-12): 16 µg/mL
MIC ([2]; K. pneumoniae CTX-M-15, SHV-12): > 64 µg/mL
% of the isolates inhibited at ≦1 μg/mL [3, 4]: 19.7%
% of the isolates inhibited at ≦8 μg/mL [3, 4]: 64.4%
MIC50 ([3]; 365 isolates producing CTX-M enzymes (no transferrable AmpC/carbapenemase)): 8 µg/mL (≈ 19.5 µM)
MIC90 ([3]; 365 isolates producing CTX-M enzymes (no transferrable AmpC/carbapenemase), read-out: MIC90): 32 µg/mL (≈ 78 µM)
MIC90 ([3]; 379 E. coli or K. pneumoniae isolates genotyped for CTX-M, TEM, or SHV ESBLs, 2:1 ratio): ~32 µg/mL
MIC50 ([3]; 511 isolates): 8 µg/mL (≈ 19.5 µM)
MIC90 ([3]; 511 isolates): >32 µg/mL
MIC90 ([3]; 511 isolates, read-out: MIC90): > 32 µg/mL
MIC50 ([3]; All CTX-M-producing K pneumoniae (71)): 8 µg/mL (≈ 19.5 µM)
MIC90 ([3]; All CTX-M-producing K pneumoniae (71), read-out: MIC90): > 32 µg/mL
MIC50 ([3]; All CTX-M-producing isolates (365)): 8 µg/mL (≈ 19.5 µM)
MIC90 ([3]; All CTX-M-producing isolates (365), read-out: MIC90): 32 µg/mL (≈ 78 µM)
MIC50 ([3]; Enterobacteriaceae (511)): 8 µg/mL (≈ 19.5 µM)
MIC90 ([3]; Enterobacteriaceae (511), read-out: MIC90): > 32 µg/mL
MIC50 ([3]; Escherichia coli, All CTX-M-producing E. coli (294)): 8 µg/mL (≈ 19.5 µM)
MIC90 ([3]; Escherichia coli, All CTX-M-producing E. coli (294), read-out: MIC90): 32 µg/mL (≈ 78 µM)
MIC50 ([3]; Escherichia coli, E. coli (385)): 8 µg/mL (≈ 19.5 µM)
MIC90 ([3]; Escherichia coli, E. coli (385), read-out: MIC90): > 32 µg/mL
MIC50 ([3]; Isolates producing CTX-M Group 1 (276)): 8 µg/mL (≈ 19.5 µM)
MIC90 ([3]; Isolates producing CTX-M Group 1 (276), read-out: MIC90): > 32 µg/mL
MIC50 ([3]; Isolates producing CTX-M Group 9 (92)): 1 µg/mL (≈ 2.44 µM)
MIC90 ([3]; Isolates producing CTX-M Group 9 (92), read-out: MIC90): 16 µg/mL (≈ 39 µM)
MIC50 ([3]; Isolates producing SHV ESBL (18)): 1 µg/mL (≈ 2.44 µM)
MIC90 ([3]; Isolates producing SHV ESBL (18), read-out: MIC90): 16 µg/mL (≈ 39 µM)
MIC50 ([3]; Isolates producing transferable AmpC (57)): > 32 µg/mL
MIC90 ([3]; Isolates producing transferable AmpC (57), read-out: MIC90): > 32 µg/mL
MIC50 ([3]; K pneumoniae (126)): 8 µg/mL (≈ 19.5 µM)
MIC90 ([3]; K pneumoniae (126), read-out: MIC90): > 32 µg/mL
MIC50 ([3]; KPC-producers (25)): 8 µg/mL (≈ 19.5 µM)
MIC90 ([3]; KPC-producers (25), read-out: MIC90): 32 µg/mL (≈ 78 µM)
cumulative % of isolates at MIC ([3]; MIC 0.015 μg/mL, All CTX-M-producing K pneumoniae (71)): (0.0) %
cumulative % of isolates at MIC ([3]; MIC 0.015 μg/mL, All CTX-M-producing isolates (365)): (0.0) %
cumulative % of isolates at MIC ([3]; MIC 0.015 μg/mL, Isolates producing CTX-M Group 9 (92)): (0.0) %
cumulative % of isolates at MIC ([3]; MIC 0.015 μg/mL, Isolates producing SHV ESBL (18)): (0.0) %
cumulative % of isolates at MIC ([3]; MIC 0.015 μg/mL, K pneumoniae (126)): (0.0) %
cumulative % of isolates at MIC ([3]; MIC 0.03 μg/mL, All CTX-M-producing K pneumoniae (71)): (1.4) %
cumulative % of isolates at MIC ([3]; MIC 0.03 μg/mL, All CTX-M-producing isolates (365)): (0.3) %
cumulative % of isolates at MIC ([3]; MIC 0.03 μg/mL, E. coli (385)): (0.0) %
cumulative % of isolates at MIC ([3]; MIC 0.03 μg/mL, Isolates producing CTX-M Group 9 (92)): (1.1) %
cumulative % of isolates at MIC ([3]; MIC 0.03 μg/mL, Isolates producing SHV ESBL (18)): (11.1) %
cumulative % of isolates at MIC ([3]; MIC 0.03 μg/mL, K pneumoniae (126)): (4.0) %
cumulative % of isolates at MIC ([3]; MIC 0.06 μg/mL, All CTX-M-producing E. coli (294)): (0.0) %
cumulative % of isolates at MIC ([3]; MIC 0.06 μg/mL, All CTX-M-producing K pneumoniae (71)): (2.8) %
cumulative % of isolates at MIC ([3]; MIC 0.06 μg/mL, All CTX-M-producing isolates (365)): (0.5) %
cumulative % of isolates at MIC ([3]; MIC 0.06 μg/mL, E. coli (385)): (0.3) %
cumulative % of isolates at MIC ([3]; MIC 0.06 μg/mL, Isolates producing CTX-M Group 9 (92)): (2.2) %
cumulative % of isolates at MIC ([3]; MIC 0.06 μg/mL, Isolates producing SHV ESBL (18)): (16.7) %
cumulative % of isolates at MIC ([3]; MIC 0.06 μg/mL, K pneumoniae (126)): (6.3) %
cumulative % of isolates at MIC ([3]; MIC 0.5 μg/mL, All CTX-M-producing E. coli (294)): (10.5) %
cumulative % of isolates at MIC ([3]; MIC 0.5 μg/mL, All CTX-M-producing K pneumoniae (71)): (7.0) %
cumulative % of isolates at MIC ([3]; MIC 0.5 μg/mL, All CTX-M-producing isolates (365)): (9.9) %
cumulative % of isolates at MIC ([3]; MIC 0.5 μg/mL, E. coli (385)): (10.4) %
cumulative % of isolates at MIC ([3]; MIC 0.5 μg/mL, Enterobacteriaceae (511)): (10.8) %
cumulative % of isolates at MIC ([3]; MIC 0.5 μg/mL, Isolates producing CTX-M Group 1 (276)): (3.6) %
cumulative % of isolates at MIC ([3]; MIC 0.5 μg/mL, Isolates producing CTX-M Group 9 (92)): (28.3) %
cumulative % of isolates at MIC ([3]; MIC 0.5 μg/mL, Isolates producing SHV ESBL (18)): (38.9) %
cumulative % of isolates at MIC ([3]; MIC 0.5 μg/mL, K pneumoniae (126)): (11.9) %
